Results taken from publication PMC9944328 (Nature Communications, 2023).
Where two headings read alike, the source gives them in different places.

Tested on: SSTR2 mutants
Experiment: SSTRs Gi-mediated cAMP inhibition, GloSensor, HEK293, 5 μM forskolin, 15 min room temperature (SSTR2 mutants)
Format: cell-based, human
Design: Best-fit Bottom, cAMP inhibition / Best-fit Top, cAMP inhibition / Span, cAMP inhibition / Bottom (best-fit value) / Top (best-fit value) / Span (best-fit value) / Span (best-fit) / Bottom (best-fit) / Top (best-fit) / Best-fit Bottom / Best-fit Top / Best-fit Span / Top / Span: scale not given here
Experimental: The levels of the intracellular 3′, 5′-cyclic AMP (cAMP) were measured by the GloSensor cAMP assay (Promega) as described in the previous studies[28],[41] which has been widely used. The human full-length SSTRs and mutants were cloned into the pcDNA3.1+ vector with a HA signal sequence followed by a Flag tag at the N-terminus. HEK293 cells (ATCC, CRL-1573) were seeded into 6-well microplates at a density of 1.0 × 10^6 cells/well and cultured for 24 h at 37 °C with 5% CO2. Cells were then co-transfected with SSTR wild-type or mutants and GloSensor plasmids. After 24 h of transfection, the cells were dissociated with TrypLE™ Express Enzyme (1X) (Thermo Fisher Scientific) and collected by centrifugation at 500 × g for 5 min. Then the collected cells were suspended in Hank’s balanced salt solution [HBSS (Thermo Fisher Scientific)] supplemented with […] (YEASEN), and then the suspension cells were seeded into 96-well plates with 90 μl/well. After incubating at room temperature for 40 min, 5 μM forskolin and ligands diluted in HBSS were added to each well and the plates were incubated at room temperature for 15 min. […] were measured using the Synergy H1 microplate reader (BioTek) and the data presented are means of at least three independent experiments.

Compound: C[C@@H](O)[C@@H]1NC(=O)[C@H](CCCCN)NC(=O)[C@@H](Cc2c[nH]c3ccccc23)NC(=O)[C@H](Cc2ccccc2)NC(=O)[C@@H](NC(=O)[C@H](N)Cc2ccccc2)CSSC[C@@H](C(=O)N[C@H](CO)[C@@H](C)O)NC1=O [octreotide]
- Top (best-fit value) (I284A-1, run 1): 116.3
- EC50 (I284A-1, run 1, read-out: EC50 (best-fit value)): 1.36 nM
- Bottom (best-fit value) (I284A-2, run 2): -11.95
- LogEC50 (best-fit value) (I284A-2, run 2): -9.363
- Span (best-fit value) (I284A-2, run 2): 136.5
- Top (best-fit value) (I284A-2, run 2): 124.6
- EC50 (I284A-2, run 2, read-out: EC50 (best-fit value)): 0.433 nM
- Bottom (best-fit value) (I284A-3, run 3): -6.083
- LogEC50 (best-fit value) (I284A-3, run 3): -8.813
- Span (best-fit value) (I284A-3, run 3): 75.58
- Top (best-fit value) (I284A-3, run 3): 69.5
- EC50 (I284A-3, run 3, read-out: EC50 (best-fit value)): 1.54 nM
- Impact on Gi protein pathway (I284ECL3A and K291(7.32)A): relatively small
- Best-fit Bottom (K291A-1): -13.76
- Best-fit Span (K291A-1): 86.2
- Best-fit Top (K291A-1): 72.44
- LogEC50 (K291A-1): -8.384
- EC50 (K291A-1, read-out: EC50): 4 nM
- Best-fit Bottom (K291A-2): -3.629
- Best-fit Span (K291A-2): 91.53
- Best-fit Top (K291A-2): 87.9
- LogEC50 (K291A-2): -8.328
- EC50 (K291A-2, read-out: EC50): 4.7 nM
- Best-fit Bottom (K291A-3): 3.692
- Best-fit Span (K291A-3): 104.2
- Best-fit Top (K291A-3): 107.9
- LogEC50 (K291A-3): -8.123
- EC50 (K291A-3, read-out: EC50): 7.54 nM
- Best-fit Bottom (L290A-1): 32.91
- Best-fit Span (L290A-1): 84.91
- Best-fit Top (L290A-1): 117.8
- LogEC50 (L290A-1): -9.231
- EC50 (L290A-1, read-out: EC50): 0.588 nM
- Best-fit Span (L290A-2): 90.85
- Best-fit Top (L290A-2): 95.5
- LogEC50 (L290A-2): -9.519
- Best-fit Bottom (L290A-3): 2.997
- Best-fit Span (L290A-3): 94.23
- Best-fit Top (L290A-3): 97.22
- LogEC50 (L290A-3): -9.438
- EC50 (L290A-3, read-out: EC50): 0.365 nM
- Gi signaling of mutant (N276(6.55)A): still exerted Gi signaling activation
- Bottom (best-fit) (N276A-1): -14.21
- LogEC50 (best-fit) (N276A-1): -7.981
- Span (best-fit) (N276A-1): 75.87
- Top (best-fit) (N276A-1): 61.65
- EC50 (N276A-1, read-out: EC50 (best-fit)): 10.4 nM
- Bottom (best-fit) (N276A-2): 0.8581
- LogEC50 (best-fit) (N276A-2): -7.561
- Span (best-fit) (N276A-2): 112.9
- Top (best-fit) (N276A-2): 113.7
- EC50 (N276A-2, read-out: EC50 (best-fit)): 27.5 nM
- Bottom (best-fit) (N276A-3): 2.316
- LogEC50 (best-fit) (N276A-3): -7.587
- Span (best-fit) (N276A-3): 109.8
- Top (best-fit) (N276A-3): 112.1
- EC50 (N276A-3, read-out: EC50 (best-fit)): 25.9 nM
- Bottom (best-fit) (P220A-1): 19.71
- LogEC50 (best-fit) (P220A-1): -9.136
- Span (best-fit) (P220A-1): 47.88
- Top (best-fit) (P220A-1): 67.58
- EC50 (P220A-1, read-out: EC50 (best-fit)): 0.732 nM
- Bottom (best-fit) (P220A-2): 10.44
- LogEC50 (best-fit) (P220A-2): -8.311
- Span (best-fit) (P220A-2): 101.1
- Top (best-fit) (P220A-2): 111.6
- EC50 (P220A-2, read-out: EC50 (best-fit)): 4.88 nM
- Bottom (best-fit) (P220A-3): 7.137
- LogEC50 (best-fit) (P220A-3): -8.347
- Span (best-fit) (P220A-3): 101.3
- Top (best-fit) (P220A-3): 108.4
- EC50 (P220A-3, read-out: EC50 (best-fit)): 4.5 nM
- Bottom (best-fit value) (P286A-1, run 1): -1.561
- LogEC50 (best-fit value) (P286A-1, run 1): -9.311
- Span (best-fit value) (P286A-1, run 1): 110.5
- Top (best-fit value) (P286A-1, run 1): 108.9
- EC50 (P286A-1, run 1, read-out: EC50 (best-fit value)): 0.489 nM
- Bottom (best-fit value) (P286A-2, run 2): -0.685
- LogEC50 (best-fit value) (P286A-2, run 2): -9.269
- Span (best-fit value) (P286A-2, run 2): 107.2
- Top (best-fit value) (P286A-2, run 2): 106.5
- EC50 (P286A-2, run 2, read-out: EC50 (best-fit value)): 0.539 nM
- Bottom (best-fit value) (P286A-3, run 3): -0.6493
- LogEC50 (best-fit value) (P286A-3, run 3): -9.076
- Span (best-fit value) (P286A-3, run 3): 92.48
- Top (best-fit value) (P286A-3, run 3): 91.83
- EC50 (P286A-3, run 3, read-out: EC50 (best-fit value)): 0.84 nM
- Best-fit Bottom (S279A-1): 9.876
- Best-fit Span (S279A-1): 98.05
- Best-fit Top (S279A-1): 107.9
- LogEC50 (S279A-1): -9.015
- EC50 (S279A-1, read-out: EC50): 0.966 nM
- Best-fit Span (S279A-2): 101.7
- Best-fit Top (S279A-2): 106.6
- LogEC50 (S279A-2): -8.897
- EC50 (S279A-2, read-out: EC50): 1.27 nM
- Best-fit Bottom (S279A-3): 4.156
- Best-fit Span (S279A-3): 86.31
- Best-fit Top (S279A-3): 90.47
- LogEC50 (S279A-3): -8.897
- Bottom (best-fit value) (S285A-1, run 1): 7.122
- LogEC50 (best-fit value) (S285A-1, run 1): -9.176
- Span (best-fit value) (S285A-1, run 1): 90.01
- Top (best-fit value) (S285A-1, run 1): 97.13
- EC50 (S285A-1, run 1, read-out: EC50 (best-fit value)): 0.667 nM
- Bottom (best-fit value) (S285A-2, run 2): 7.037
- LogEC50 (best-fit value) (S285A-2, run 2): -9.15
- Span (best-fit value) (S285A-2, run 2): 69.44
- Top (best-fit value) (S285A-2, run 2): 76.48
- EC50 (S285A-2, run 2, read-out: EC50 (best-fit value)): 0.707 nM
- Bottom (best-fit value) (S285A-3, run 3): -3.857
- LogEC50 (best-fit value) (S285A-3, run 3): -9.167
- Span (best-fit value) (S285A-3, run 3): 92.79
- Top (best-fit value) (S285A-3, run 3): 88.94
- EC50 (S285A-3, run 3, read-out: EC50 (best-fit value)): 0.68 nM
- Best-fit Bottom, cAMP inhibition (SSTR2 I195A-1, run 1): 1.138
